From patent publication US9408387B2, “Safening 6-amino-2-(substituted phenyl)-5-substituted-4-pyrimidinecarboxylate herbicide injury on cereal crops” (Dow AgroSciences LLC, priority 2009, dated 2016)
Read-outs that look alike come from different tables or passages of the source.

How the values were obtained:
Type in all cases: in vivo
SASKR = test: Postemergence herbicidal activity, greenhouse, visual injury: SASKR; details: CQC-M 0
Procedure: (§1) Evaluation of Postemergence Herbicidal Safening in Cereal Crops
(§2) Seeds of the desired test plant species were planted in Sun Gro MetroMix® 306 planting mixture, which typically has a pH of 6.0 to 6.8 and an organic matter content of about 30 percent, in plastic pots with a surface area of 103.2 square centimeters (cm^2). When required to ensure good germination and healthy plants, a fungicide treatment and/or other chemical or physical treatment was applied. The plants were grown for 7-36 days (d) in a greenhouse with an approximate 14-hour (h) photoperiod which was maintained at about 18° C. during the day and 17° C. during the night. Nutrients and water were added on a regular basis and supplemental lighting was provided with overhead metal halide 1000-Watt lamps as necessary. The plants were employed for testing when they reached the second or third true leaf stage.
(§3) Treatments consisted of the acids or esters of compounds 1-10 and cloquintocet-mexyl (CQC-M), fenchlorazole-ethyl, mefenpyr-diethyl alone and in combination. Weighed amounts of acid or methyl esters of the compounds of formula (I) were dissolved in a volume of 97:3 v/v acetone/dimethylsulfoxide (DMSO) to obtain concentrated solutions. […] The concentrated solutions of the test compound were diluted with the addition of an aqueous mixture containing acetone, water, isopropyl alcohol, DMSO, Agri-Dex crop oil concentrate, and Triton® X-77 surfactant in a 64.7:26.0:6.7:2.0:0.7:0.01 v/v ratio. Test compounds were diluted to the appropriate application rate with a dilution solution which was prepared by mixing the appropriate volume of 97:3 v/v acetone/DMSO and the appropriate volume of an aqueous mixture containing acetone, water, isopropyl alcohol, DMSO, Agri-Dex crop oil concentrate, and Triton® X-77 surfactant in a 64.7:26.0:6.7:2.0:0.7:0.01 v/v ratio. Compound requirements are based upon a 12 mL application volume at a rate of 187 liters per hectare (L/ha). The concentrated solutions of the safener were prepared following the same procedure. Weighed amounts of safener were dissolved in a volume of 97:3 v/v acetone/DMSO to obtain concentrated safener solutions.
(§4) Spray solutions of the herbicide safener and test compound mixtures were prepared by adding the concentrated solutions to the appropriate amount of dilution solution to form 12 mL spray solution with active ingredients in combinations.
(§5) Formulated compounds were applied to the plant material with an overhead Mandel track sprayer equipped with 8002E nozzles calibrated to deliver 187 L/ha over an application area of 0.503 square meters (m^2) at a spray height of 18 inches (43 centimeters (cm)) above average plant canopy. Control plants were sprayed in the same manner with the solvent blank.
(§6) The treated plants and control plants were placed in a greenhouse as described above and watered by sub-irrigation to prevent wash-off of the test compounds. After 20-22 d, the condition of the test plants as compared with that of the control plants was determined visually and scored on a scale of 0 to 100 percent where 0 corresponds to no injury and 100 corresponds to complete kill.
(§7) Colby's equation was used to determine the herbicidal effects expected from the mixtures (Colby, S. R. Calculation of the synergistic and antagonistic response of herbicide combinations. Weeds 1967, 15, 20-22.).
(§8) The following equation was used to calculate the expected activity of mixtures containing two active ingredients, A and B: Expected=A+B−(A×B/100)
(§9) A=observed efficacy of active ingredient A at the same concentration as used in the mixture.
(§10) B=observed efficacy of active ingredient B at the same concentration as used in the mixture.

[1] = test system: purple deadnettle (Lamium purpureum L; LAMPU); test: Postemergence herbicidal activity, greenhouse, visual injury: purple deadnettle; details: for LAMPU Ob (Observed values, % control): CQC-M 0; for pest or weed control at 140 g/ha: Lamium purpureum, post-emergence, 480 h, read-out: LAMPU Ob (visual injury)
Procedure: as §1, §2, §3, §4, §5, §6, §7, §8, §9, §10

[2] = test system: wild pansy (Viola tricolor; VIOTR); test: Postemergence herbicidal activity, greenhouse, visual injury: VIOTR; details: CQC-M 0
CIRAR = test: Postemergence herbicidal activity, greenhouse, visual injury: CIRAR; details: CQC-M 0
Procedure: as §1, §2, §3, §4, §5, §6, §7, §8, §9, §10

MATCH = test: Postemergence herbicidal activity, greenhouse, visual injury: MATCH; details: CQC-M 0
Procedure: as §1, §2, §3, §4, §5, §6, §7, §8, §9, §10

[3] = test system: kochia (Kochia scoparia L; KCHSC); test: Postemergence herbicidal activity, greenhouse, visual injury: kochia; details: CQC-M 0
Procedure: as §1, §2, §3, §4, §5, §6, §7, §8, §9, §10

[4] = test system: bird's-eye speedwell (Veronica persica L; VERPE); test: Postemergence herbicidal activity, greenhouse, visual injury: bird's-eye speedwell; details: CQC-M 0
Procedure: as §1, §2, §3, §4, §5, §6, §7, §8, §9, §10

[5] = test system: corn poppy (Papaver rhoeas L; PAPRH); test: Postemergence herbicidal activity, greenhouse, visual injury: corn poppy; details: CQC-M 0
Procedure: as §1, §2, §3, §4, §5, §6, §7, §8, §9, §10

[6] = test system: spring wheat (Triticum aestivum L; TRZAS); test: Postemergence herbicidal safening in cereal crops, greenhouse, visual injury: spring wheat; details: for TRZAS Ob (Observed values, % control): CQC-M 0; for pest or weed control at 140 g/ha: Triticum aestivum, post-emergence, 480 h, read-out: TRZAS Ob (visual injury)
Procedure: as §1, §2, §3, §4, §5, §6, §7, §8, §9, §10

[7] = test system: spring barley (Hordeum vulgare L; HORVS); test: Postemergence herbicidal safening in cereal crops, greenhouse, visual injury: spring barley; details: for HORVS Ob (Observed values, % control): CQC-M 0; for pest or weed control at 140 g/ha: Hordeum vulgare, post-emergence, 480 h, read-out: HORVS Ob (visual injury)
Procedure: as §1, §2, §3, §4, §5, §6, §7, §8, §9, §10

[8] = test system: wild mustard (Sinapis arvensis L.; SINAR); test: Postemergence herbicidal activity, greenhouse, visual injury: SINAR; details: CQC-M 0
[9] = test system: lamb's-quarters (Chenopodium album L; CHEAL); test: Postemergence herbicidal activity, greenhouse, visual injury: lamb's-quarters; details: safener alone 140 g ae/ha; 20-22 d
Procedure: as §1, §2, §3
Spray solutions of the herbicide safener and test compound mixtures were prepared by adding the concentrated solutions to the appropriate amount of dilution solution to form 12 mL spray solution with active ingredients in combinations. […]
as §6, with “kill. […]” for “kill.”

[10] = safener alone 140 g ae/ha, 20-22 d

Compound: COc1c(N)nc(-c2ccc(Cl)c(F)c2F)nc1C(=O)O [Compound 10, 6-amino-2-(4-chloro-2,3-difluorophenyl)-5-methoxypyrimidine-4-carboxylic acid]
- SASKR Ob (Observed values, % control) (SASKR; Compound 10 8.75 g ae/ha): 85%
- SASKR Ob (Observed values, % control) (SASKR; Compound 10 17.5 g ae/ha): 87%
- SASKR Ob (Observed values, % control) (SASKR; Compound 10 35 g ae/ha): 90%
- SASKR Ob (Observed values, % control) (SASKR; Compound 10 70 g ae/ha): 93%
- SASKR Ob (Observed values, % control) (SASKR; Compound 10 140 g ae/ha): 95%
- LAMPU Ob (Observed values, % control) ([1]; Compound 10 8.75 g ae/ha): 95%
- LAMPU Ob (Observed values, % control) ([1]; Compound 10 17.5 g ae/ha): 95%
- LAMPU Ob (Observed values, % control) ([1]; Compound 10 35 g ae/ha): 100%
- LAMPU Ob (Observed values, % control) ([1]; Compound 10 70 g ae/ha): 100%
- LAMPU Ob (Observed values, % control) ([1]; Compound 10 140 g ae/ha): 100%
- VIOTR Ob (Observed values, % control) ([2]; Compound 10 8.75 g ae/ha): 70%
- VIOTR Ob (Observed values, % control) ([2]; Compound 10 17.5 g ae/ha): 75%
- VIOTR Ob (Observed values, % control) ([2]; Compound 10 35 g ae/ha): 85%
- VIOTR Ob (Observed values, % control) ([2]; Compound 10 70 g ae/ha): 93%
- VIOTR Ob (Observed values, % control) ([2]; Compound 10 140 g ae/ha): 97%
- CIRAR Ob (Observed values, % control) (CIRAR; Compound 10 8.75 g ae/ha): 80%
- CIRAR Ob (Observed values, % control) (CIRAR; Compound 10 17.5 g ae/ha): 85%
- CIRAR Ob (Observed values, % control) (CIRAR; Compound 10 35 g ae/ha): 90%
- CIRAR Ob (Observed values, % control) (CIRAR; Compound 10 70 g ae/ha): 90%
- CIRAR Ob (Observed values, % control) (CIRAR; Compound 10 140 g ae/ha): 100%
- MATCH Ob (Observed values, % control) (MATCH; Compound 10 8.75 g ae/ha): 70%
- MATCH Ob (Observed values, % control) (MATCH; Compound 10 17.5 g ae/ha): 90%
- MATCH Ob (Observed values, % control) (MATCH; Compound 10 35 g ae/ha): 93%
- MATCH Ob (Observed values, % control) (MATCH; Compound 10 70 g ae/ha): 95%
- MATCH Ob (Observed values, % control) (MATCH; Compound 10 140 g ae/ha): 100%
- KCHSC Ob (Observed values, % control) ([3]; Compound 10 8.75 g ae/ha): 98%
- KCHSC Ob (Observed values, % control) ([3]; Compound 10 17.5 g ae/ha): 98%
- KCHSC Ob (Observed values, % control) ([3]; Compound 10 35 g ae/ha): 100%
- KCHSC Ob (Observed values, % control) ([3]; Compound 10 70 g ae/ha): 100%
- KCHSC Ob (Observed values, % control) ([3]; Compound 10 140 g ae/ha): 100%
- VERPE Ob (Observed values, % control) ([4]; Compound 10 8.75 g ae/ha): 93%
- VERPE Ob (Observed values, % control) ([4]; Compound 10 17.5 g ae/ha): 97%
- VERPE Ob (Observed values, % control) ([4]; Compound 10 35 g ae/ha): 100%
- VERPE Ob (Observed values, % control) ([4]; Compound 10 70 g ae/ha): 100%
- VERPE Ob (Observed values, % control) ([4]; Compound 10 140 g ae/ha): 100%
- PAPRH Ob (Observed values, % control) ([5]; Compound 10 8.75 g ae/ha): 100%
- PAPRH Ob (Observed values, % control) ([5]; Compound 10 17.5 g ae/ha): 100%
- PAPRH Ob (Observed values, % control) ([5]; Compound 10 35 g ae/ha): 100%
- PAPRH Ob (Observed values, % control) ([5]; Compound 10 70 g ae/ha): 100%
- PAPRH Ob (Observed values, % control) ([5]; Compound 10 140 g ae/ha): 100%
- TRZAS Ob (Observed values, % control) ([6]; Compound 10 8.75 g ae/ha): 45%
- TRZAS Ob (Observed values, % control) ([6]; Compound 10 17.5 g ae/ha): 55%
- TRZAS Ob (Observed values, % control) ([6]; Compound 10 35 g ae/ha): 65%
- TRZAS Ob (Observed values, % control) ([6]; Compound 10 70 g ae/ha): 70%
- TRZAS Ob (Observed values, % control) ([6]; Compound 10 140 g ae/ha): 75%
- HORVS Ob (Observed values, % control) ([7]; Compound 10 8.75 g ae/ha): 25%
- HORVS Ob (Observed values, % control) ([7]; Compound 10 17.5 g ae/ha): 30%
- HORVS Ob (Observed values, % control) ([7]; Compound 10 35 g ae/ha): 60%
- HORVS Ob (Observed values, % control) ([7]; Compound 10 70 g ae/ha): 75%
- HORVS Ob (Observed values, % control) ([7]; Compound 10 140 g ae/ha): 85%
- SINAR Ob (Observed values, % control) ([8]; Compound 10 8.75 g ae/ha): 100%
- SINAR Ob (Observed values, % control) ([8]; Compound 10 17.5 g ae/ha): 100%
- SINAR Ob (Observed values, % control) ([8]; Compound 10 35 g ae/ha): 100%
- SINAR Ob (Observed values, % control) ([8]; Compound 10 70 g ae/ha): 100%
- SINAR Ob (Observed values, % control) ([8]; Compound 10 140 g ae/ha): 100%

Compound: CCOC(=O)c1nc(C(Cl)(Cl)Cl)n(-c2ccc(Cl)cc2Cl)n1 [Fenchlorazole-ethyl, fenchlorazole-ethyl, reference compound]
- pest or weed control at 140 g/ha [1, 10]: 0%
- pest or weed control at 140 g/ha [6, 10]: 0%
- pest or weed control at 140 g/ha [7, 10]: 0%
- CHEAL Ob (visual injury) [9]: 0%

Compound: CCOC(=O)C1=NN(c2ccc(Cl)cc2Cl)C(C)(C(=O)OCC)C1 (stereo not drawn) [Mefenpyr-diethyl, mefenpyr-diethyl, reference compound]
- pest or weed control at 140 g/ha [1]: 0%
- pest or weed control at 140 g/ha [6]: 0%
- pest or weed control at 140 g/ha [7]: 0%
- CHEAL Ob (visual injury) [9]: 0%
